What all share (test): two-electrode voltage clamp, Xenopus oocytes
Holding throughout (assay type): cell-based
On the technique in general: Two-electrode voltage clamp holds a large cell at a set potential and records current.

Test [1] concerns the target T1, LymP2X (Lymnaea stagnalis, UniProt K7QP77).
T1 construct: full-length, 435 residues, shorter clone starting at second in-frame ATG; cRNA injected in Xenopus oocytes; homotrimer expected (P2X family); differs from contig FX193730 in 50 residues of the cysteine-rich head (possible alternative exon)
T1 sequence (K7QP77 1-435): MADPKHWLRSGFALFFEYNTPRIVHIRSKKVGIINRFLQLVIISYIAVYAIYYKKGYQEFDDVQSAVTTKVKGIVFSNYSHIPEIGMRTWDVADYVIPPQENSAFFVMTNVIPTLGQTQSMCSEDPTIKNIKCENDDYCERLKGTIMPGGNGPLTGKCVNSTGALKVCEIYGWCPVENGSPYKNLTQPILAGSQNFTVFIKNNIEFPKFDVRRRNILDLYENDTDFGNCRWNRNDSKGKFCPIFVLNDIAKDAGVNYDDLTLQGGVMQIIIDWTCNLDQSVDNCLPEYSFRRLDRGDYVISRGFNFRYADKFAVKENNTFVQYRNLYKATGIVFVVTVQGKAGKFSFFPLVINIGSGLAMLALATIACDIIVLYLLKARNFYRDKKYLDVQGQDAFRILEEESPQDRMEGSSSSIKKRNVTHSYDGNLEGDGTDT

Another test addresses T2, LymP2X clone 11 (Lymnaea stagnalis, UniProt K7QP77, INS0MTTK).
T2 construct: full-length plus N-terminal MTTK (upstream in-frame ATG at nucleotide 3) added to LymP2X (GenBank JX524180); Xenopus oocytes
T2 sequence (K7QP77 1-435 INS0MTTK): T1 sequence (K7QP77 1-435)

Test [2] has as its target T1, LymP2X. The conditions noted are these: weak agonist; pH 7.5, 1.8 mM Ba2+ in place of Ca2+, -60 mV.
Test [3] deals with T1, LymP2X. This is another data set of the same source.

These results are taken from paper PMC3510196, “Cloning and Characterization of a P2X Receptor Expressed in the Central Nervous System of Lymnaea stagnalis” (PLoS ONE, 2012).

Molecules are shown by their SMILES.

As to `Nc1ncnc2c1ncn2[C@@H]1O[C@H](COP(=O)(O)OP(=O)(O)OP(=O)(O)O)[C@@H](OC(=O)c2ccc(C(=O)c3ccccc3)cc2)[C@H]1O` [BzATP], at LymP2X [1], a half-maximal effect (EC50) was put at 2.4 µM.
Consider `Nc1ncnc2c1ncn2[C@@H]1O[C@H](COP(=O)(O)OP(=O)(O)OP(=O)(O)O)[C@@H](O)[C@H]1O` [ATP], for which the EC50 – broadly, the concentration giving half of the maximal effect – at LymP2X clone 11 was 5.8 µM; at LymP2X [1], 6.2 µM.
As for `Nc1ncnc2c1ncn2[C@@H]1O[C@H](COP(=O)(O)CP(=O)(O)OP(=O)(O)O)[C@@H](O)[C@H]1O` [αβmeATP], at LymP2X [2], the “% of 10 μM ATP response at 100 μM” value was found to be 36.9±10.6%.
As to `Cc1ccc(C(=O)Nc2ccc(S(=O)(=O)O)c3cc(S(=O)(=O)O)cc(S(=O)(=O)O)c23)cc1NC(=O)c1cccc(NC(=O)Nc2cccc(C(=O)Nc3cc(C(=O)Nc4ccc(S(=O)(=O)O)c5cc(S(=O)(=O)O)cc(S(=O)(=O)O)c45)ccc3C)c2)c1` [suramin], the IC50 (as a rule, the concentration needed to halve the response being measured) on LymP2X [3] is 27.4 µM.
The same measure, in the same setting: the same measure for `Cc1nc(N=Nc2ccc(S(=O)(=O)O)cc2S(=O)(=O)O)c(COP(=O)(O)O)c(C=O)c1O` [PPADS]: 8.1 µM.
